Results as given in patent publication US20230165278A1, “NUTRITIONAL SUPPLEMENTS COMPRISING DIETARY METAL COMPLEXES IN A MATRIX OF CELLULOSIC MATERIALS” (North Carolina State University, priority 2020, published 2023).

Experiments:
[1] = cited from earlier work; for Solubility (in words): background statement
Solubility in water = assay type: physicochemical; details: description of the patent's own materials
[2] = Swine trial (16 barrows, 14 days): zinc in ileal, cecal and fecal samples and zinc digestibility; assay type: in vivo; details: pigs
Excerpt: A representative animal trial used a group of 16 barrows (castrated male pigs) including of 8 pairs of littermates. […] The littermate pairs were divided in half and randomly assigned to either the control diet or the test diet containing a composition of the presently disclosed subject matter. Each diet was formulated using a basal diet primarily of corn and soybean meal containing 50 ppm Zn from an added vitamin premix. The control diet contained an additional 50 ppm Zn from Basic Zinc Chloride (Zn5Cl2(OH)8.H2O) and the test diet contained an additional 50 ppm Zn from a composition of the presently disclosed subject matter for a total of 100 ppm Zn for each diet to meet the National Research Council recommendation for zinc supplementation of pigs of this size. The composition of the presently disclosed subject matter was prepared as described herein above.
Pigs were fed twice daily at 0800 and 1700 for the entirety of the trial. Daily feed intake for maintenance was determined for each pig at 4% of initial body weight at the beginning of the trial. Each pig was housed in a separate metabolism crate allowing for the quantitative collection of feces and urine. The trial lasted for a total of 14 days; the first 10 days allowed for the pigs to adjust to their new environments and diets. Days 11-13 for were used for twice-daily feces and urine collection. On day 14 all pigs were weighed and humanely euthanized prior to dissections to obtain ileal and cecal content samples. Feces samples and urine samples were pooled daily and stored at −20 C until ready for analysis. Fecal, ileal, and cecal samples were dried at 64 C in a drying oven until no change in mass was observed which took between 48-96 hours for most samples. After being dried completely, samples were sent to Missouri Field Laboratories for analysis of Zn, Titanium dioxide which was used as a feed marker, and proximate nutrient analysis. Pigs gained an average of 7.34 kilograms per pig during the 14 day trial.
The control diet, containing all supplemental zinc from basic zinc chloride, contained 134 ppm zinc. […] This may be indicative of the composition of the presently disclosed subject matter having higher levels of zinc than used in formulation of the diets.
Using the concentration of zinc found in the feed and ileal, cecal and fecal samples, zinc digestibility by the following equation: 100−[100*(zinc in feed/zinc in feces)]. Since the amounts of zinc present in the diets were over the zinc requirement of pigs of this size and age, the extra zinc in the diets employing a composition of the presently disclosed subject matter (referred to as “Experimental” in Table 2) may have affected the zinc digestibility results.

[3] = 100-[100*(zinc in feed/zinc in sample)]

For `[O]=[Zn]` [Zinc oxide], the “Solubility (in words)” value [1] is given as “relatively insoluble except in acid”.
In the case of `[Cl-].[Cl-].[Zn+2]` [ZnCl2], the “Solubility (amount that dissolves in 1 L of water)” value ([1]; in 1 L of water) is listed as 4 kg.
For `O=C([O-])[C@H](O)[C@@H](O)[C@H](O)[C@H](O)CO.O=C([O-])[C@H](O)[C@@H](O)[C@H](O)[C@H](O)CO.[Zn+2]` [zinc gluconate, Zn(O2C(CHOH)4CH2OH)2], the “Solubility (in words)” value [1] is given as “highly soluble”.
For Zn5Cl2(OH)8.H2O [Control], the “Solubility in water / aqueous solution (in words)” value (Solubility in water) was “highly insoluble in water”, the “Percent more zinc in ileal contents than in cecal contents” value [2] was 2.2% and the “Concentration of Zinc found in contents of the cecum” value ([2]; dried cecal contents, day 14, diet zinc found 134 ppm (control) / 152 ppm (experimental)) was 399 ppm. The “Concentration of Zinc found in feces” value ([2]; dried feces collected days 11-13, diet zinc found 134 ppm (control) / 152 ppm (experimental)) was 678 ppm, the “Concentration of Zinc found in contents of the ileum” value ([2]; dried ileal contents, day 14, diet zinc found 134 ppm (control) / 152 ppm (experimental)) was 408 ppm and the “Percent Digestibility of Zinc in Feed, Fecal” value ([2]; 100-[100*(zinc in feed/zinc in feces)]) was 80.2%. For the same compound, the “Percent Digestibility of Zinc in Feed, Cecal” value [2, 3] was 66.1%, the “Percent Digestibility of Zinc in Feed, Ileal” value [2, 3] was 62.6% and the “Share of total zinc excreted in feces” value ([2]; fecal zinc vs total of ileal, cecal and fecal zinc) was 45.7%. The “Share of total zinc retained in ilium+cecum” value ([2]; ileal+cecal zinc vs total of ileal, cecal and fecal zinc) was 54.3%.
